Laboratory results reported in patent US7960397B2, “6,9-disubstituted purine derivatives and their use as cosmetics and cosmetic compositions” (Institute of Experimental Botany, Academy of Sciences of …, priority 2007, dated 2011).

What was measured:
[1] = system: cytokinin-dependent tobacco callus Nicotiana tabacum L. cv. Wisconsin 38; assay: Cytokinin activity in tobacco callus bioassay; type: cell-based; settings: for concentration with highest activity: growth of tobacco callus, four weeks of cultivation, tested 10^−8 M to 10^−4 M; for Activity (%) [10^−5 mol · l^−1 BAP = 100%]: increase of fresh callus weight at the concentration with highest activity, 10^−5 M BAP = 100%
Procedure: Estimation of cytokinin biological activity of novel compounds in callus bioassay. Cytokinin-dependent tobacco callus Nicotiana tabacum L. cv. […] Subcultivation was carried out every three weeks. Fourteen days before the bioassay, the callus tissue was transferred to the media without the compound tested. The biological activity was determined from the increase of the fresh callus weight after four weeks of cultivation. Five replicates were prepared for each concentration of the compound tested and the entire test was repeated twice. […] The relative activity of the compound at this concentration was calculated (Table 8). […] The compounds to be tested were dissolved in dimethylsulfoxide (DMSO) and the solution brought up to 10^−3 M with distilled water. This stock solution was further diluted with the respective media used for the biotest to a concentration ranging from 10^−8 M to 10^−4 M.

[2] = system: Amaranthus caudatus cotyledon/hypocotyl explants; assay: Amaranthus bioassay (betacyanin content); design: species or system Amaranthus caudatus var. atropurpurea; settings: for concentration with highest activity: betacyanin content after 48 h incubation, tested 10^−8 M to 10^−4 M; for Activity (%) [10^−5 mol · l^−1 BAP = 100%]: betacyanin content at the concentration with highest activity, 10^−5 M BAP = 100%
Procedure: Testing of novel compounds for typical cytokinin activity in Amaranthus bioassay. A standard Amaranthus bioassay was performed with several modifications. The seeds of Amaranthus caudatus var. atropurpurea were surface-sterilized in 10% (w/v) N-chlorobenzenesulfonamide for 10 min and washed 5 times with deionized water. They were placed in 14 cm Petri dishes containing paper tissues saturated with deionized water. After 72 h of cultivation at 25° C. in darkness, the roots of the seedlings were cut off. The explants, consisting of two cotyledons and hypocotyls, were placed in 5 cm Petri dishes onto two layers of filter paper soaked with 1 ml of the incubation medium containing 10 mmol of NA2HPO4—KH2PO4, pH 6.8, 5 mmol of tyrosine and the compound to be tested. There were 20 explants per dish. The procedure was carried out under a green safe light in a darkroom. […] The concentration of betacyanin was determined from the absorbencies at 537 nm and 620 nm as follows: DA=A537 nm−A620 nm. […] Relative activity of the compound at this concentration was calculated. The activity obtained for 10^−5 M 6-benzylaminopurine (BAP) was defined as 100%.
(§1) The compounds to be tested were dissolved in dimethylsulfoxide (DMSO) and the solution brought up to 10^−3 M with distilled water.

excised wheat leaf tips = assay: Antisenescence test, retention of chlorophyll in excised wheat leaf tips; design: species or system Triticum aestivum cv. Hereward; settings: for activity (%) [10^−4 mol · l^−1 BAP = 100%]: retention of chlorophyll in excised wheat leaf tips at the concentration with highest activity, 10 replicate determinations; for concentration with highest activity: retention of chlorophyll in excised wheat leaf tips, tested range 10^−8 M to 10^−4 M, 96 h in the dark at 25° C.
Procedure: Testing of antisenescence properties of novel cytokinin compounds on wheat leaf segments. Seeds of winter wheat, Triticum aestivum cv. Hereward, were washed under running water for 24 hours and then sown on vermiculite soaked with the Knop's solution. They were placed in the grow chamber at 25° C. with a 16 h-8 h light period at 50 mmol.m^−2.s^−1. After 7 days, the first leaf was fully developed and the second leaf had started to grow. A 35 mm long tip section of the first leaf, was removed from each of 5 seedlings and trimmed slightly to a combined weight of 100 mg. The basal ends of the five leaf tips were placed in the wells of a microtiter polystyrene plate containing […] of the solution of the tested compound each. The entire plate was inserted into a plastic box lined with paper tissues soaked with distilled water to prevent leaf sections from drying out. After 96 h incubation in the dark at 25° C., the leaves were removed and chlorophyll was extracted by heating at 80° C. for 10 min in 5 ml of 80% ethanol (v/v). The sample volume was then restored to 5 ml by the addition of 80% ethanol (v/v). The absorbance of the extract was recorded at 665 nm. In addition, chlorophyll extracts from fresh leaves and leaf tips incubated in deionized water were measured. […] Relative activity of the compound at this concentration was calculated (Table 7). The activity obtained for 10^−4 M 6-benzylaminopurine (BAP) was defined as 100%. The values shown are means of five replicates and the whole experiment was repeated twice.
as §1

[3] = system: human diploid fibroblasts (HCA cells, HCA20, HCA40, HCA60); assay: Senescent cells (β-galactosidase staining) in culture of human fibroblasts; type: cell-based; settings: for SENESCENT CELLS (%) HCA20: human fibroblasts passage 20 (HCA20); for SENESCENT CELLS (%) HCA40: human fibroblasts passage 40 (HCA40); for SENESCENT CELLS (%) HCA60: human fibroblasts passage 60 (HCA60)
Procedure: In this example, human diploid fibroblasts (HCA cells of various passage levels: passage 20—designated HCA20; passage 40—designated HCA40; passage 60—designated HCA60) were stained for β-galactosidase activity. The medium used for the cell cultivation was removed, the cells were washed twice in […], and fixed in 2-3 ml of fixing solution comprised of a 2% formaldehyde and 0.2% glutaraldehyde in PBS. The cells were incubated at room temperature for 5 minutes, and then washed twice with PBS. The cells were subsequently incubated at 37° C.

SMILES | concentration with highest activity [1] | Activity (%) [10^−5 mol · l^−1 BAP = 100%] [1] [%] | concentration with highest activity [2] | Activity (%) [10^−5 mol · l^−1 BAP = 100%] [2] [%] | activity (%) [10^−4 mol · l^−1 BAP = 100%] (excised wheat leaf tips) [%] | concentration with highest activity (excised wheat leaf tips) | SENESCENT CELLS (%) HCA20 [3] [%] | SENESCENT CELLS (%) HCA40 [3] [%] | SENESCENT CELLS (%) HCA60 [3] [%]
Oc1ccoc1CNc1ncnc2c1ncn2C1CCCCO1 (stereo not drawn) | 10^−6 mol · l^−1 | 52 | 10^−4 mol · l^−1 | 65 | 45 | 10^−4 mol · l^−1 | 4 | 4 | 18
COc1cc(O)cc(OC)c1Nc1ncnc2c1ncn2C1CCCCO1 (stereo not drawn) | 10^−5 mol · l^−1 | 15 | 10^−4 mol · l^−1 | 8 | 14 | 10^−4 mol · l^−1 | 4 | 6 | 24
Oc1ccccc1CNc1ncnc2c1ncn2C1CCCCO1 (stereo not drawn) [6-(2-hydroxybenzylamino)-9-(tetrahydropyran-2-yl)purine] | 10^−5 mol · l^−1 | 80 | 10^−4 mol · l^−1 | 41.6 | 23.6 | 10^−4 mol · l^−1 | 4 | 2 | 26
Oc1ccccc1Nc1ncnc2c1ncn2C1CCCCO1 (stereo not drawn) [2-hydroxyanilino / tetrahydropyran-2-yl] | 10^−5 mol · l^−1 | 30 | 10^−4 mol · l^−1 | 65 | 11 | 10^−4 mol · l^−1 | 4 | 6 | 29
CC(CO)CCNc1ncnc2c1ncn2C1CCCCO1 (stereo not drawn) [6-(4-hydroxy-3-methylbutylamino)-9-(tetrahydropyran-2-yl)purine] | 10^−5 mol · l^−1 | 112 | 10^−4 mol · l^−1 | 83 | 95 | 10^−4 mol · l^−1 | 5 | 2 | 25
CC(CO)CCNc1ncnc2c1ncn2C1CCCO1 (stereo not drawn) | 10^−5 mol · l^−1 | 105 | 10^−4 mol · l^−1 | 80 | 91 | 10^−4 mol · l^−1 | 5 | 2 | 25
Cc1ccc(O)c(CNc2ncnc3c2ncn3C2CCCCO2)c1 (stereo not drawn) | 10^−4 mol · l^−1 | 121 | 10^−4 mol · l^−1 | 68.4 | 82 | 10^−4 mol · l^−1 | 5 | 4 | 30
Oc1cccc(Nc2ncnc3c2ncn3C2CCCCO2)c1 (stereo not drawn) [3-hydroxyanilino / tetrahydropyran-2-yl] | 10^−5 mol · l^−1 | 65 | 10^−4 mol · l^−1 | 122 | 23 | 10^−4 mol · l^−1 | 5 | 4 | 28
COc1ccc(CNc2ncnc3c2ncn3C2CCCCO2)c(O)c1 (stereo not drawn) | 10^−6 mol · l^−1 | 43 | 10^−4 mol · l^−1 | 37 | 35 | 10^−4 mol · l^−1 | 3 | 4 | 27
Oc1cccc(CNc2ncnc3c2ncn3C2CCCCO2)c1 (stereo not drawn) [6-(3-hydroxybenzylamino)-9-(tetrahydropyran-2-yl)purine] | 10^−5 mol · l^−1 | 139 | 10^−4 mol · l^−1 | 105.1 | 133.1 | 10^−4 mol · l^−1 | 5 | 3 | 25
COc1cc(CNc2ncnc3c2ncn3C2CCCCO2)cc(OC)c1O (stereo not drawn) | 10^−5 mol · l^−1 | 39 | 10^−4 mol · l^−1 | 8 | 42 | 10^−4 mol · l^−1 | 4 | 5 | 17
COc1cccc(CNc2ncnc3c2ncn3C2CCCCO2)c1O (stereo not drawn) | 10^−6 mol · l^−1 | 11 | 10^−4 mol · l^−1 | 32 | 50 | 10^−4 mol · l^−1 | 3 | 3 | 25
Oc1cccc(CNc2ncnc3c2ncn3C2CCCO2)c1 (stereo not drawn) [6-(3-hydroxybenzylamino)-9-(tetrahydrofuran-2-yl)-purine] | 10^−5 mol · l^−1 | 125 | 10^−4 mol · l^−1 | 107 | 113 | 10^−4 mol · l^−1 | 5 | 3 | 25
COc1cc(Nc2ncnc3c2ncn3C2CCCCO2)cc(OC)c1O (stereo not drawn) | 10^−5 mol · l^−1 | 19 | 10^−4 mol · l^−1 | 10 | 28 | 10^−4 mol · l^−1 | 4 | 5 | 22
